Source: PMC9505538, “P-Glycoprotein (MDR1/ABCB1) Restricts Brain Accumulation of the Novel EGFR Inhibitor EAI045 and Oral Elacridar Coadministration Enhances Its Brain Accumulation and Oral Exposure” (Pharmaceuticals, 2022)

What was measured:
[1] = mouse, in vivo
Description: (§1) Mice (Mus musculus) were bred in the Netherlands Cancer Institute and housed and handled according to institutional guidelines complying with Dutch and EU legislation. Animals used were WT, Abcb1a/1b^-/- [39], Abcg2^-/- [40], Abcb1a/1b;Abcg2^-/- [41], Cyp3a^-/- [42], and Oatp1a/1b^-/- [43] mice of a >99% FVB/N strain background. Homozygous CYP3A4 humanized transgenic mice (Cyp3aXAV) were generated by cross-breeding of transgenic mice with stable human CYP3A4 expression in the liver or intestine, respectively, in a Cyp3a^-/- background. Proper functionality of the knockout and transgenic strains was monitored by regular testing with a variety of drug substrates. All the mice used were between 10 and 15 weeks of age. Animals were kept in a temperature-controlled environment with a 12 h light/12 h dark cycle and received a standard diet (Transbreed, SDS Diets, Technilab-BMI, The Netherlands) and acidified water ad libitum. Depending on the type of experiment, 5 or 6 mice were tested in each experimental group. All experimental animal protocols, including power calculations, were ethically assessed and designed under the nationally approved DEC/CCD project AVD301002016595 (approval date, 10 August 2016) and evaluated and approved by the institutional animal care and use committee (IACUC) of the Netherlands Cancer Institute.
(§2) EAI045 was dissolved in dimethyl sulfoxide (DMSO) at a concentration of […], and then diluted with a mixture of polysorbate 80/ethanol (1:1, v/v), and further diluted with 5% (w/v) glucose in water to yield a concentration of 2 mg/mL. Final concentrations for DMSO, polysorbate 80, ethanol, and glucose in the dosing solution were 5%, 2.5%, 2.5%, and 4.5% (v/v/v/w), respectively. Elacridar hydrochloride was dissolved in DMSO at a concentration of 53 mg/mL, then diluted with a mixture of polysorbate 80, ethanol, and water [20:13:67, (v/v/v)] to yield a concentration of 5 mg/mL elacridar. The final oral dose of elacridar was 50 mg/kg body weight. All dosing solutions were prepared freshly on the day of experiment.
(§3) To minimize variation in absorption, mice were fasted for about 3 h before EAI045 was administered by gavage into the stomach (n = 5–6), using a blunt-ended needle. EAI045 was administered orally at dose of 20 mg/kg. Elacridar was administered orally at a dose of 50 mg/kg, 3 h prior to oral EAI045 administration. For the 24- or 4-h experiments, tail vein blood samplings were performed at 5 min, 30 min, 1, 2, 4, and 8 h, or 5 min, 15 min, 30 min, 1, and 2 h time points after oral administration of EAI045, respectively, using microvettes containing heparin. For the 30 min experiments, blood samplings were performed at 5, 10, and 20 min from the tail vein. At the last time point (24 h, 4 h, or 30 min), mice were anesthetized with isoflurane and blood was collected by cardiac puncture. Then, mice were sacrificed by cervical dislocation and brain, liver, spleen, kidneys, lung, small intestine with content (SIWC), and testis were rapidly removed and weighed. Tissues were homogenized on ice in appropriate volumes of 2% (w/v) BSA. Blood samples were centrifuged at 9000× g for 6 min at 4 °C immediately after collection. All samples were stored at −30 °C until analysis.

[2] = mouse, in vivo; remark: listed apart in the source
Method: We subsequently analyzed the single and combined effects of Abcb1 and Abcg2 deficiencies on EAI045 plasma pharmacokinetics and tissue accumulation using male WT, Abcg2^-/-, Abcb1a/1b^-/-, and Abcb1a/1b;Abcg2^-/- mice. As we wanted to assess tissue concentrations while plasma concentrations were still relatively high; we terminated this experiment at 30 min.
as §1, §2, §3

[3] = set-up: method as in PMID 28288939, PMID 30253203, PMID 31175939, PMID 33459177, PMID 35400324; conditions: reported; cited from earlier work
[4] = after oral administration; no reference given; cited from earlier work
human OATP1A2 = tested on: human OATP1A2; set-up: method as in PMID 31770475; conditions: cited from earlier work
[5] = tested on: L858R/T790M EGFR mutant kinase; set-up: method as in PMID 27251290; conditions: cited from earlier work

O=C(O)C(c1cc(F)ccc1O)N1Cc2ccccc2C1=O (stereo not shown) [PIA]
PIA brain-to-plasma ratio, fold increase [1]: 3.3 fold
PIA kidney-to-plasma ratio, fold increase [1]: 4.2 fold
PIA liver-to-plasma ratio, fold decrease [1]: 1.5 fold
PIA SIWC%, fold decrease [2]: 1.8 fold
PIA SIWC%-to-plasma ratio, fold decrease [2]: 2.7 fold
amount of PIA retrieved from SIWC, % of the EAI045 dose [2]: ~ 0.3%
PIA oral AUC0–30min among the strains ([2]; po): no meaningful differences
PIA/EAI045 AUC0–30min ratio ([2]; po, 20 mg/kg): 270-480%
PIA/EAI045 AUC ratio ([2]; po, 20 mg/kg): about 400%
PIA brain-to-plasma ratio ([2]; po, 20 mg/kg, 0.5 h): 0.014

CN(C)C/C=C/C(=O)Nc1cc2c(Nc3ccc(F)c(Cl)c3)ncnc2cc1O[C@H]1CCOC1 [afatinib]
increase in brain penetration in Abcb1a/1b;Abcg2-/- compared to WT mice [3]: 28 fold

COc1cc(N2CCC(N3CCN(C)CC3)CC2)ccc1Nc1ncc(Cl)c(Nc2ccccc2P(C)(C)=O)n1 [brigatinib]
increase in brain penetration in Abcb1a/1b;Abcg2-/- compared to WT mice [3]: 38 fold

COc1cc2c(cc1OC)CN(CCc1ccc(NC(=O)c3cccc4c(=O)c5cccc(OC)c5[nH]c34)cc1)CC2 [elacridar]
time of peak plasma concentration [4]: 3 to 4 h
inhibition of human OATP1A2 (human OATP1A2): reported to inhibit

C=CC(=O)Nc1cc(Nc2nccc(-c3cn(C)c4ccccc34)n2)c(OC)cc1N(C)CCN(C)C [osimertinib]
increase in brain penetration in Abcb1a/1b;Abcg2-/- compared to WT mice [3]: 6.4 fold

EAI001 [reference compound]
potency against individual L858R and T790M mutants [5]: modest potency
